The values that follow come from US20150197814A1, “EGFR AND KRAS MUTATIONS” (Genentech, Inc., priority 2005, published 2015).

The subject of experiment [1] is cell cycle. The note with it: cited from earlier work.
Experiment [2] has as its system A431 xenografts. The note with it: A431 xenografts in nude mice; cited from earlier work.
The test system of experiment [3] is H1975 tumor cell line (EGFR T790M in combination with L858R). In words: sensitivity of H1975 tumor cell line to treatment.
For experiment [4] the following is noted: with paclitaxel, cisplatin, gemcitabine, and doxorubicin; cited from earlier work.
For experiment [5], the system named is HN5 xenografts. The note with it: HN5 xenografts in nude mice; cited from earlier work.

On to `C#Cc1cccc(Nc2ncnc3cc(OCCOC)c(OCCOC)cc23)c1` [erlotinib], for which the cell cycle effect entry in experiment [1] is “cell cycle arrest at G1”. The “growth inhibition of xenografts” value in experiment [2] and in experiment [5] was “marked growth inhibition” throughout. Also, the “response of tumor cell line to treatment” value in experiment [3] is recorded as “resistance”. The “interaction with chemotherapy agents” value in experiment [4] was “additive interaction”.
